Results published in the supplement of paper PMC10307832.

Columns and labels:
Assay in all cases: relative viability (nuclei count vs DMSO), 5 days (fraction); higher = more cells survive
[1] = compound: O=C(NCCCNc1nc(Nc2cccc(NC(=O)N3CCCC3)c2)ncc1I)c1cccs1 [BX 795] + CCNC(=O)c1noc(-c2cc(C(C)C)c(O)cc2O)c1-c1ccc(CN2CCOCC2)cc1 [Luminespib] (partner 0.01 µM)
In short: (§1)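 Nuclei were stained with Hoechst during a one-step fixation (final 0.05% Triton X-100, 1% formaldehyde, 1 ug/ml Hoechst) carried out 5 days after dosing, then counted on 4× images. The cells, lung cancer lines in 1536-well plates, had been dosed by pin tool the day after seeding with one drug alone or a fixed anchor-drug dose plus five library-drug doses (not always all listed) in √10 steps. Relative viability is the nuclei count in treated wells divided by that in vehicle wells, and each value is the median of duplicate plates.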

[2] = compound: O=C(NCCCNc1nc(Nc2cccc(NC(=O)N3CCCC3)c2)ncc1I)c1cccs1 [BX 795] + Cc1nc(Nc2ncc(C(=O)Nc3c(C)cccc3Cl)s2)cc(N2CCN(CCO)CC2)n1 [Dasatinib] (partner 0.075 µM)
In short: as §1

[3] = compound: O=C(NCCCNc1nc(Nc2cccc(NC(=O)N3CCCC3)c2)ncc1I)c1cccs1 [BX 795] + Nc1nc2[nH]cc(CCc3ccc(C(=O)N[C@@H](CCC(=O)O)C(=O)O)cc3)c2c(=O)[nH]1 [Pemetrexed] (partner 0.2 µM)
In short: as §1

[4] = compound: O=C(NCCCNc1nc(Nc2cccc(NC(=O)N3CCCC3)c2)ncc1I)c1cccs1 [BX 795] + NC(=O)Nc1cc(-c2cccc(F)c2)sc1C(=O)N[C@H]1CCCNC1 [AZD7762] (partner 0.2 µM)
In short: as §1

[5] = compound: O=C(NCCCNc1nc(Nc2cccc(NC(=O)N3CCCC3)c2)ncc1I)c1cccs1 [BX 795] + Cc1cc(Nc2cc(N3CCN(C)CC3)nc(Sc3ccc(NC(=O)C4CC4)cc3)n2)n[nH]1 [Tozasertib] (partner 0.1 µM)
In short: as §1

[6] = compound: O=C(NCCCNc1nc(Nc2cccc(NC(=O)N3CCCC3)c2)ncc1I)c1cccs1 [BX 795] + Nc1ncn([C@H]2C[C@H](O)[C@@H](CO)O2)c(=O)n1 [Decitabine] (partner 2 µM)
In short: as §1

[7] = compound: O=C(NCCCNc1nc(Nc2cccc(NC(=O)N3CCCC3)c2)ncc1I)c1cccs1 [BX 795] + O=C(c1cc(Cc2n[nH]c(=O)c3ccccc23)ccc1F)N1CCN(C(=O)C2CC2)CC1 [Olaparib] (partner 8 µM)
In short: as §1

[8] = compound: O=C(NCCCNc1nc(Nc2cccc(NC(=O)N3CCCC3)c2)ncc1I)c1cccs1 [BX 795] + COc1cccc2cc(-c3nc([C@H]4CC[C@H](C(=O)O)CC4)n4ncnc(N)c34)[nH]c12 [OSI-027] (partner 0.5 µM)
In short: as §1

[9] = compound: O=C(NCCCNc1nc(Nc2cccc(NC(=O)N3CCCC3)c2)ncc1I)c1cccs1 [BX 795] + CC(=O)Nc1cccc(-n2c(=O)n(C3CC3)c(=O)c3c(Nc4ccc(I)cc4F)n(C)c(=O)c(C)c32)c1 [Trametinib] (partner 0.02 µM)
In short: as §1

[10] = compound: O=C(NCCCNc1nc(Nc2cccc(NC(=O)N3CCCC3)c2)ncc1I)c1cccs1 [BX 795] + O=C(CCCCCCC(=O)Nc1ccccc1)NO [Vorinostat] (partner 1 µM)
In short: as §1

[11] = compound: O=C(NCCCNc1nc(Nc2cccc(NC(=O)N3CCCC3)c2)ncc1I)c1cccs1 [BX 795] + N=C(N)NC(=N)NCCc1ccccc1 [Phenformin] (partner 250 µM)
In short: as §1

[12] = compound: O=C(NCCCNc1nc(Nc2cccc(NC(=O)N3CCCC3)c2)ncc1I)c1cccs1 [BX 795] + CC(=O)c1c(C)c2cnc(Nc3ccc(N4CCNCC4)cn3)nc2n(C2CCCC2)c1=O [Palbociclib] (partner 0.5 µM)
In short: as §1

[13] = compound: O=C(NCCCNc1nc(Nc2cccc(NC(=O)N3CCCC3)c2)ncc1I)c1cccs1 [BX 795]
In short: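 Viability was read as treated-well nuclei divided by vehicle-well nuclei, using the median across plates. Lung cancer cell lines in 1536-well plates were kept overnight at 37 °C, pinned with five √10-spaced library-drug doses, and after 5 days were Hoechst-stained, imaged at 4× and counted in MetaXpress. Plates passed only with control CV below 25% and at least one doubling.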

NCI-H522 showed a relative viability ([1]; first compound 0.04 µM) of 1.41, a relative viability ([1]; first compound 0.1265 µM) of 1.23 and a relative viability ([1]; first compound 0.4 µM) of 1.02. For the same cell line, the relative viability ([1]; first compound 1.265 µM) was 1.01, the relative viability ([2]; first compound 0.04 µM) was 0.972 and the relative viability ([2]; first compound 0.1265 µM) was 0.769. The relative viability ([2]; first compound 0.4 µM) was 0.764, the relative viability ([2]; first compound 1.265 µM) was 0.849 and the relative viability ([3]; first compound 0.04 µM) was 1.13. The relative viability ([3]; first compound 0.1265 µM) was 1.16, the relative viability ([3]; first compound 0.4 µM) was 1.08 and the relative viability ([3]; first compound 1.265 µM) was 1.02. For the same cell line, the relative viability ([4]; first compound 0.04 µM) was 0.716, the relative viability ([4]; first compound 0.1265 µM) was 0.811 and the relative viability ([4]; first compound 0.4 µM) was 0.777. It also gave a relative viability ([4]; first compound 1.265 µM) of 0.785, a relative viability ([5]; first compound 0.04 µM) of 0.57 and a relative viability ([5]; first compound 0.1265 µM) of 0.603. For the same cell line, the relative viability ([5]; first compound 0.4 µM) was 0.544, the relative viability ([5]; first compound 1.265 µM) was 0.569 and the relative viability ([6]; first compound 0.04 µM) was 0.556. The relative viability ([6]; first compound 0.1265 µM) was 0.657, the relative viability ([6]; first compound 0.4 µM) was 0.73 and the relative viability ([6]; first compound 1.265 µM) was 0.71. For the same cell line, the relative viability ([7]; first compound 0.04 µM) was 0.616, the relative viability ([7]; first compound 0.1265 µM) was 0.586 and the relative viability ([7]; first compound 0.4 µM) was 0.692. For the same cell line, the relative viability ([7]; first compound 1.265 µM) was 0.658, the relative viability ([8]; first compound 0.04 µM) was 0.801 and the relative viability ([8]; first compound 0.1265 µM) was 0.71. It also gave a relative viability ([8]; first compound 0.4 µM) of 0.769, a relative viability ([8]; first compound 1.265 µM) of 0.685 and a relative viability ([9]; first compound 0.04 µM) of 0.84. It also gave a relative viability ([9]; first compound 0.1265 µM) of 0.781, a relative viability ([9]; first compound 0.4 µM) of 0.803 and a relative viability ([9]; first compound 1.265 µM) of 0.616. For the same cell line, the relative viability ([10]; first compound 0.04 µM) was 0.9, the relative viability ([10]; first compound 0.1265 µM) was 0.864 and the relative viability ([10]; first compound 0.4 µM) was 0.875. For the same cell line, the relative viability ([10]; first compound 1.265 µM) was 0.72, the relative viability ([11]; first compound 0.04 µM) was 0.645 and the relative viability ([11]; first compound 0.1265 µM) was 0.643. It also gave a relative viability ([11]; first compound 0.4 µM) of 0.681, a relative viability ([11]; first compound 1.265 µM) of 0.668 and a relative viability ([12]; first compound 0.04 µM) of 0.958. It also gave a relative viability ([12]; first compound 0.1265 µM) of 0.969, a relative viability ([12]; first compound 0.4 µM) of 0.943 and a relative viability ([12]; first compound 1.265 µM) of 0.982. For the same cell line, the relative viability ([13]; 0.04 µM) was 0.92, the relative viability ([13]; 0.1265 µM) was 0.877 and the relative viability ([13]; 0.4 µM) was 0.921. For the same cell line, the relative viability ([13]; 1.265 µM) was 1.01.
